Source: US12054498B2, “Heteroaromatic macrocyclic ether chemotherapeutic agents” (Nuvalent, Inc., priority 2020, dated 2024)

What was measured:
Assay type in all cases: cell-based
[1] = target: T1, Ba/F3 cells CD74-ROS1 G2032R (Homo sapiens, UniProt P08922, G2032R); experiment: Ba/F3 cell proliferation assay, CD74-ROS1 G2032R; details: 72 hours, CellTiter-Glo
T1 construct: fusion of the C-terminus of ROS1 with the N-terminus of various partner proteins; host or cells: Ba/F3 (RIKEN), retroviral pMSCV-puro; the other entry of the earlier key: CD74 (P04233, HLA class II histocompatibility antigen gamma chain)
Description: (§1) The virus was used to infect Ba/F3 cells (RIKEN) at multiplicity of infection=1 for 1 day. Infected cells were rescued in media (RPMI-1640 with 10% fetal bovine serum and 1% streptomycin and penicillin) supplemented with mouse IL-3 (10 ng/mL) for 2 days, and stable cell lines were selected by IL-3 withdrawal and puromycin (0.8 μg/mL) for 7 days. Monoclones were selected by single-cell dilution in IL-3-free medium containing puromycin (0.8 μg/mL).
(§2) Cell Proliferation Assay Stable cells were plated at 1,000 cells/well (40 μL) in a 384-well plate for 1 day.
(§3) Test compounds (40 nL) were then added in a 3-fold dilution series using the TECAN EVO200 liquid handler and incubated for 72 hours. Plates were equilibrated at room temperature for 15 minutes followed by addition of 40 μL CellTiter-Glo reagent (Promega).
(§4) Luminescence was measured on a plate reader. Half-maximal inhibitory concentration (IC50) was calculated from percent inhibition and inhibitor concentration using four-parameter logistic regression. […] (nd=not determined).

[2] = system: TPM3-NTRK1-wt IC50 / primary target IC50 (e.g. CD74-ROS1-wt); experiment: TRKA selectivity in Ba/F3 cells (TRKA potency divided by primary target potency); details: for TPM3-NTRK1-wt/CD74-ROS1-G2032R selectivity ratio: TRKA potency / CD74-ROS1-G2032R potency; for TPM3-NTRK1-wt/CD74-ROS1-wt selectivity ratio: TRKA potency / CD74-ROS1-wt potency; for TPM3-NTRK1-wt/EML4-ALK-L1196M-G1202R selectivity ratio: TRKA potency / EML4-ALK-L1196M-G1202R potency; for TPM3-NTRK1-wt/EML4-ALK-wt selectivity ratio: TRKA potency / EML4-ALK-wt potency
Description: TRKA selectivity was calculated by dividing a compound's TRKA potency by its primary target potency (e.g. TPM3-NTRK1-wt IC50/CD74-ROS1-wt IC50). Compound selectivity can be interpreted by binning ratio values: bin A for very high selectivity, ratio >30-fold; bin B for high selectivity, ratio >10-fold; bin C for moderate selectivity, ratio ≥1; and bin D for low selectivity, ratio <1. […] (nd=not determined).

[3] = target: T2, Ba/F3 cells CD74-ROS1 wild-type (wt) (Homo sapiens, UniProt P08922); experiment: Ba/F3 cell proliferation assay, CD74-ROS1 wild-type; details: 72 hours, CellTiter-Glo
T2 construct: fusion of the C-terminus of ROS1 with the N-terminus of various partner proteins; host or cells: Ba/F3 (RIKEN), retroviral pMSCV-puro; the other entry of the earlier key: CD74 (P04233, HLA class II histocompatibility antigen gamma chain)
Description: as §1, §2, §3, §4

[4] = target: T3, Ba/F3 cells EML4-ALK L1196M/G1202R (variant 1) (Homo sapiens, UniProt Q9UM73, G1202R/L1196M); experiment: Ba/F3 cell proliferation assay, EML4-ALK L1196M/G1202R (variant 1); details: 72 hours, CellTiter-Glo
T3 construct: echinoderm microtubule-associated protein-like 4 (EML4) gene and the ALK tyrosine kinase domain; host or cells: Ba/F3 (RIKEN), retroviral pMSCV-puro; the other entry of the earlier key: EML4 (Q9HC35, Echinoderm microtubule-associated protein-like 4)
From the text: (§5) Genes encoding CD74-ROS1 wild-type (wt), CD74-ROS1 G2032R, CD74-ROS1 S1986F, CD74-ROS1 L2026M, CD74-ROS1 D2033N, EML4-ALK wt (variant 1), EML4-ALK G1202R (variant 1), EML4-ALK L1196M/G1202R (variant 1), EML4-ALK G1202R/G1269A (variant 1), EML4-ALK G1202R/L1198F (variant 1), and TPM3-TRKA were synthesized at GeneRay, cloned into the retroviral construct pMSCV-puro (Biovector), and packaged into retroviral particles. The virus was used to infect Ba/F3 cells (RIKEN) at multiplicity of infection=1 for 1 day. Infected cells were rescued in media (RPMI-1640 with 10% fetal bovine serum and 1% streptomycin and penicillin) supplemented with mouse IL-3 (10 ng/mL) for 2 days, and stable cell lines were selected by IL-3 withdrawal and puromycin (0.8 μg/mL) for 7 days. Monoclones were selected by single-cell dilution in IL-3-free medium containing puromycin (0.8 μg/mL). Transformation of desired genes was confirmed by Sanger sequencing and western blot using the following antibodies: ROS1 (CST #3287), ALK (CST #3633), and pan-TRK (Abcam #76291).
as §2, §3, §4

[5] = target: T4, Ba/F3 cells EML4-ALK wt (variant 1) (Homo sapiens, UniProt Q9UM73); experiment: Ba/F3 cell proliferation assay, EML4-ALK wt (variant 1); details: 72 hours, CellTiter-Glo
T4 construct: echinoderm microtubule-associated protein-like 4 (EML4) gene and the ALK tyrosine kinase domain; host or cells: Ba/F3 (RIKEN), retroviral pMSCV-puro; the other entry of the earlier key: EML4 (Q9HC35, Echinoderm microtubule-associated protein-like 4)
From the text: as §5, §2, §3, §4

[6] = target: T5, Ba/F3 cells TPM3-TRKA (Homo sapiens, UniProt P04629); experiment: Ba/F3 cell proliferation assay, TPM3-TRKA; details: 72 hours, CellTiter-Glo, read-out: TPM3-NTRK1-wt IC50
T5 construct: host or cells: Ba/F3 (RIKEN), retroviral pMSCV-puro; the other entry of the earlier key: TPM3 (P06753, Tropomyosin alpha-3 chain)
From the text: as §5, §2, §3, §4

T2 sequence (P08922 1883-2347 limits assumed): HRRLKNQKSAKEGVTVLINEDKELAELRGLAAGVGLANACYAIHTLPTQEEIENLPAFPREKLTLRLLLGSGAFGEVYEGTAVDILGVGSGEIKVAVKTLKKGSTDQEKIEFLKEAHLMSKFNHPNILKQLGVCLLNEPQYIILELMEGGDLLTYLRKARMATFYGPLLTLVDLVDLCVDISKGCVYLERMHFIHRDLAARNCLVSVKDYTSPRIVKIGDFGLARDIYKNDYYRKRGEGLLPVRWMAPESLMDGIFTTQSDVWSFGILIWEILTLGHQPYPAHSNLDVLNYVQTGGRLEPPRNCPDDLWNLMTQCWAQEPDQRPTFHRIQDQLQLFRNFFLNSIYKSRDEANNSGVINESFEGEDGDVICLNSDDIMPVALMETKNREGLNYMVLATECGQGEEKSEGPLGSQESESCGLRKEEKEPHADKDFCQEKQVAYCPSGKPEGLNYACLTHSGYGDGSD
T3 sequence (Q9UM73 with tags, fused parts or gaps L1196M/G1202R): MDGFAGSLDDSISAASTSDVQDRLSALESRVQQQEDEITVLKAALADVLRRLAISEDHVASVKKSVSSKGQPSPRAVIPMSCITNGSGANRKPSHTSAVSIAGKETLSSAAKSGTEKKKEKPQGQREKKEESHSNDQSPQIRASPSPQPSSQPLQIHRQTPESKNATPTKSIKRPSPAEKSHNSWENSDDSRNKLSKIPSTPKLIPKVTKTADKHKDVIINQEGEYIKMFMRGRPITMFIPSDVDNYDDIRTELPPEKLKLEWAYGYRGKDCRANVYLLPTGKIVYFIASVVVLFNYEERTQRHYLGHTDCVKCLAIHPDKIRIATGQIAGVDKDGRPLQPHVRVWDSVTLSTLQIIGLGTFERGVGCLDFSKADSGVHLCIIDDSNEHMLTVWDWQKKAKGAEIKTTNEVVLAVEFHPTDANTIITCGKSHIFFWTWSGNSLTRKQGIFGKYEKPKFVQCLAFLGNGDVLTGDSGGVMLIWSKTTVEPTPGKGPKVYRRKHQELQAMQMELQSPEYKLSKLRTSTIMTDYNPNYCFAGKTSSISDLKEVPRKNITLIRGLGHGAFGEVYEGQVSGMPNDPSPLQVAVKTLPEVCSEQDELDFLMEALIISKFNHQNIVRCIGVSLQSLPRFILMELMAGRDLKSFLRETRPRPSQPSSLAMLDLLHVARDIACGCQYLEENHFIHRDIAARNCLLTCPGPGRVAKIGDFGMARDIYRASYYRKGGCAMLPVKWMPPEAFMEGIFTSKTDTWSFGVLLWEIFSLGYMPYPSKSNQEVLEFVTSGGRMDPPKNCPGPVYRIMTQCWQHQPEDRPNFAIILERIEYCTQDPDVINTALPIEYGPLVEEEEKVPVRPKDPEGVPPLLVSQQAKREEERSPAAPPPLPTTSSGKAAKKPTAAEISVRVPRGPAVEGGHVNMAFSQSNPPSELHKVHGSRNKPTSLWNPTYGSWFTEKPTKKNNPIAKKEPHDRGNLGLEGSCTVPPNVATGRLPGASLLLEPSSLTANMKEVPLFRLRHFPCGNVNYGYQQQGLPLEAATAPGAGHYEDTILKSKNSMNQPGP
T4 sequence (Q9UM73 with tags, fused parts or gaps): as the sequence (Q9UM73 with tags, fused parts or gaps L1196M/G1202R) above, with M635L, R641G counted along it
T1 sequence (P08922 1883-2347 G2032R limits assumed): as the sequence (P08922 1883-2347 limits assumed) above, with G150R counted along it
T5 sequence (P04629 510-796 limits assumed): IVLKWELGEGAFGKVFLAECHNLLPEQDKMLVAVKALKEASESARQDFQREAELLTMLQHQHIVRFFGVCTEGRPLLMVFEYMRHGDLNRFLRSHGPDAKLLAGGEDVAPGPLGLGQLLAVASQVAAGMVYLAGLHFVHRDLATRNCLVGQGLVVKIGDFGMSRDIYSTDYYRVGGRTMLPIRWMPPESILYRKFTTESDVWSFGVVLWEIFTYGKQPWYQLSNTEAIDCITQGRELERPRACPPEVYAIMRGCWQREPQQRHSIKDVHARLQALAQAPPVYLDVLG

Row | IC50 [1] [nM] | IC50 [3] [nM] | IC50 [4] [nM] | IC50 [5] [nM] | IC50 [6] [nM] | Structure (SMILES) | TPM3-NTRK1-wt/CD74-ROS1-G2032R selectivity ratio [2] | TPM3-NTRK1-wt/CD74-ROS1-wt selectivity ratio [2] | TPM3-NTRK1-wt/EML4-ALK-L1196M-G1202R selectivity ratio [2] | TPM3-NTRK1-wt/EML4-ALK-wt selectivity ratio [2]
1 | 0.1 to 50 | 0.1 to 50 | 50 to 500 | 50 to 500 | > 500 | Cc1nc2c(o1)-c1ccc(F)cc1C(C)Oc1cc(cnc1N)-c1c(c(Cl)nn1CC1CC1)C2 (stereo not drawn) [Example 93] | A (bin A for very high selectivity, ratio >30-fold) | A (bin A for very high selectivity, ratio >30-fold) | B (bin B for high selectivity, ratio >10-fold) | A (bin A for very high selectivity, ratio >30-fold)
2 | 50 to 500 | 0.1 to 50 | > 500 | 50 to 500 | > 500 | CCn1ccc2c1-c1cnc(N)c(c1)O[C@H](C)c1cc(F)ccc1-c1nn(C)nc1C2 [Example 102, (19R)-3-ethyl-16-fluoro-10,19-dimethyl-20-oxa-3,9,10,11,23-pentaazapentacyclo[19.3.1.0^2,^6.0^8,^12.0^13,^18]pentacosa-1(24),2(6),4,8,11,13,15,17,21(25),22-decaen-22-amine] | B (bin B for high selectivity, ratio >10-fold) | A (bin A for very high selectivity, ratio >30-fold) | C (bin C for moderate selectivity, ratio ≥1) | B (bin B for high selectivity, ratio >10-fold)
3 | 0.1 to 50 | 0.1 to 50 | 50 to 500 | 0.1 to 50 | 50 to 500 | CCn1ncc2c1-c1cnc(N)c(c1)O[C@H](C)c1cc(F)ccc1-c1cc(Br)nn1C2 [Example 94, (19R)-10-bromo-3-ethyl-16-fluoro-19-methyl-20-oxa-3,4,8,9,23-pentaazapentacyclo[19.3.1.0^2,^6.0^8,^12.0^13,^18]pentacosa-1(24),2(6),4,9,11,13,15,17,21(25),22-decaen-22-amine] | A (bin A for very high selectivity, ratio >30-fold) | A (bin A for very high selectivity, ratio >30-fold) | C (bin C for moderate selectivity, ratio ≥1) | B (bin B for high selectivity, ratio >10-fold)

The next lines start with the compound.

Row | Structure (SMILES) | IC50 [1] [nM] | IC50 [3] [nM] | IC50 [4] [nM] | IC50 [5] [nM] | IC50 [6] [nM] | TPM3-NTRK1-wt/CD74-ROS1-G2032R selectivity ratio [2] | TPM3-NTRK1-wt/CD74-ROS1-wt selectivity ratio [2] | TPM3-NTRK1-wt/EML4-ALK-L1196M-G1202R selectivity ratio [2] | TPM3-NTRK1-wt/EML4-ALK-wt selectivity ratio [2]
4 | C[C@H]1Oc2cc(cnc2N)-c2c(CC3CC3)noc2Cn2ncnc2-c2ccc(F)cc21 [Example 67, (19R)-3-(cyclopropylmethyl)-16-fluoro-19-methyl-5,20-dioxa-4,8,9,11,23-pentaazapentacyclo[19.3.1.0^2,^6.0^8,^12.0^13,^18]pentacosa-1(24),2(6),3,9,11,13,15,17,21(25),22-decaen-22-amine] | 0.1 to 50 | 0.1 to 50 | 50 to 500 | 0.1 to 50 | > 500 | A (bin A for very high selectivity, ratio >30-fold) | A (bin A for very high selectivity, ratio >30-fold) | C (bin C for moderate selectivity, ratio ≥1) | A (bin A for very high selectivity, ratio >30-fold)
5 | CCn1ncc2c1-c1cnc(N)c(c1)OCc1cc(F)ccc1-c1ccnn1C2 [Example 17, 3-ethyl-16-fluoro-20-oxa-3,4,8,9,23-pentaazapentacyclo[19.3.1.0^2,^6.0^8,^12.0^13,^18]pentacosa-1(24),2(6),4,9,11,13,15,17,21(25),22-decaen-22-amine] | 50 to 500 | 0.1 to 50 | > 500 | 50 to 500 | > 500 | A (bin A for very high selectivity, ratio >30-fold) | A (bin A for very high selectivity, ratio >30-fold) | C (bin C for moderate selectivity, ratio ≥1) | B (bin B for high selectivity, ratio >10-fold)
6 | Cc1nc2c(o1)-c1ccc(F)cc1[C@@H](C)Oc1cc(cnc1N)-c1c(c(C)nn1CC1CC1)C2 [Example 78, (19R)-3-(cyclopropylmethyl)-16-fluoro-5,10,19-trimethyl-11,20-dioxa-3 ,4,9,23-tetraazapentacyclo[19.3.1.0^2,^6.0^8,^12.0^13,^18]pentacosa-1(24),2(6),4,8(12),9,13,15,17,21(25),22-decaen-22-amine] | 0.1 to 50 | 0.1 to 50 | 50 to 500 | 0.1 to 50 | > 500 | A (bin A for very high selectivity, ratio >30-fold) | A (bin A for very high selectivity, ratio >30-fold) | A (bin A for very high selectivity, ratio >30-fold) | A (bin A for very high selectivity, ratio >30-fold)
7 | Cc1nn(CC2CC2)c2c1Cn1nc(Cl)cc1-c1ccc(F)cc1[C@@H](C)Oc1cc-2cnc1N [Example 81, (19R)-10-chloro-3-(cyclopropylmethyl)-16-fluoro-5,19-dimethyl-20-oxa-3,4,8,9,23-pentaazapentacyclo[19.3.1.0^2,^6.0^8,^12.0^13,^18]pentacosa-1(24),2(6),4,9,ll,13,15,17,21(25),22-decaen-22-amine] | 0.1 to 50 | 0.1 to 50 | > 500 | 50 to 500 | > 500 | A (bin A for very high selectivity, ratio >30-fold) | A (bin A for very high selectivity, ratio >30-fold) | C (bin C for moderate selectivity, ratio ≥1) | A (bin A for very high selectivity, ratio >30-fold)
8 | C[C@H]1Oc2cc(cnc2N)-c2c(cnn2CC2CC2)Cc2nn(C(F)F)nc2-c2ccc(F)cc21 [Example 91, (19R)-3-(cyclopropylmethyl)-10-(difluoromethyl)-16-fluoro-19-methyl-20-oxa-3,4,9,10,11,23-hexaazapentacyclo[19,3.1.0^2,^6.0^8,^12.0^13,^18]pentacosa-1(24),2(6),4,8,11,13,15,17,21(25),22-decaen-22-amine] | 0.1 to 50 | 0.1 to 50 | 0.1 to 50 | 0.1 to 50 | 50 to 500 | A (bin A for very high selectivity, ratio >30-fold) | A (bin A for very high selectivity, ratio >30-fold) | B (bin B for high selectivity, ratio >10-fold) | A (bin A for very high selectivity, ratio >30-fold)
